{
  "source": "patent US20220023381A1",
  "about": "“VDAC INHIBITORS FOR TREATING AUTOIMMUNE DISEASES” (NATIONAL INSTITUTE FOR BIOTECHNOLOGY IN THE NEGEV LTD., priority 2018, published 2022)",
  "key": {"[1]": {"system": "EndoG−/− MEFs", "assay": "ISG expression in EndoG−/− MEFs (real-time PCR / western blot)", "format": "cell-based, mouse", "settings": "VBIT-4 (10 μM), real-time PCR", "description": "All MEFs were grown in complete Dulbecco's modified Eagle's medium (DMEM, Corning) supplemented with 10% fetal bovine serum (FBS, Sigma-Aldrich) and 1% penicillin and streptomycin (antibiotics, Gibco) at 37° C. with 5% CO2.\nTotal RNA was extracted using RNeasy Plus Mini Kit (Qiagen) according to the manufacturer's instructions. The first-strand cDNA was synthesized from 2 μg purified mRNA using Accupower RT PreMix (BioNeer). The reaction mixtures were incubated at 42° C. for 60 min and 94° C. for 5 min. Real-time RT-PCR was performed using the LightCycler 96 system (Roche Life Science) with SYBR Green master mix (Roche). The primers used were as follow (5′-3′): EndoG forward (SEQ ID NO:36), and reverse (SEQ ID NO:37); Cxcl10 forward (SEQ ID NO:38), and reverse (SEQ ID NO:39); GAPDH forward (SEQ ID NO:40), and reverse (SEQ ID NO:41); Ifi44 forward (SEQ ID NO:42), and reverse (SEQ ID NO:43); Ifit1 forward (SEQ ID NO:44), and reverse (SEQ ID NO:45); Ifit3 forward (SEQ ID NO:46), and reverse (SEQ ID NO:47); IFNα4 forward (SEQ ID NO:48), and reverse (SEQ ID NO:49); IFNβ forward (SEQ ID NO:50), and reverse (SEQ ID NO:51); Iigp1 forward (SEQ ID NO:52), and reverse (SEQ ID NO:53); ISG15 forward (SEQ ID NO:54), and reverse (SEQ ID NO:55); Oasl2 forward (SEQ ID NO:56), and reverse (SEQ ID NO:57); Rsad2 forward (SEQ ID NO:58), and reverse (SEQ ID NO:59); USP18 forward (SEQ ID NO:60), and reverse (SEQ ID NO:61); VDAC1 forward (SEQ ID NO:62), and reverse (SEQ ID NO:63). GAPDH was used as an internal standard of mRNA expression, and the ratio of the target gene expression to GAPDH expression was calculated using LightCycler 96 Instrument software (Roche). The quality of real-time RT-PCR results was evaluated based on the melting temperature (Tm) of a DNA fragment and melting curve analysis."}, "[2]": {"target": "T1, VDAC1 (Rattus norvegicus, UniProt Q9Z2L0)", "T1 construct": "from tissue; host or cells: rat liver mitochondria (inferred)", "T1 sequence (Q9Z2L0 whole entry)": "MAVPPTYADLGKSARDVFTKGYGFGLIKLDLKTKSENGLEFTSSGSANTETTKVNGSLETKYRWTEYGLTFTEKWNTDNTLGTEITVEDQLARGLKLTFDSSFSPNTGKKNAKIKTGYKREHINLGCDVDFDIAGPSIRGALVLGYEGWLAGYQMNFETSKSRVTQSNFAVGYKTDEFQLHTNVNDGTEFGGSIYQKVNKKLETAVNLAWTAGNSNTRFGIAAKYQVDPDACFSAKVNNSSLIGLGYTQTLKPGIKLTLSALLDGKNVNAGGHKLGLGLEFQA", "assay": "Micro-scale thermophoresis (MST) interaction with VDAC1", "format": "binding", "settings": "without prior exposure to high voltage"}, "[3]": {"system": "human PBMCs", "assay": "A23187-induced mitochondrial ROS (MitoSOX)", "format": "cell-based", "settings": "VBIT-4 (5 μM), A23187 (25 μM), 1 h", "protocol": "Cellular cGAMP levels were measured by LC/MS (Agilent Technologies) using 5% perchloric acid extracts of WT and EndoG^−/− MEFs. Intracellular ROS production in MEFs was measured using the oxidative stress indicator CM-H2DCFDA (Invitrogen) with flow cytometry (FACS). Mitochondrial ROS in MEFs was evaluated using the mitochondrial superoxide indicator MitoSOX (Invitrogen) with a confocal microscope (LSM880, Zeiss, and the fluorescence intensity was measured using Zen software (Zeiss). To quantify mitochondrial ROS in human PBMCs, the cells were obtained from heparinized blood using a Ficoll-Paque gradient. The cells were washed with PBS, resuspended in RPMI 1640 medium, and transferred to 96-well plates. Subsequently, the cells were stimulated with calcium ionophore A23187 (25 μM), VBIT-4 (5 μM), and MitoSOX (2 μM) (Life Technologies). After 1 h at 37° C., the fluorescence was measured at 510/595 nm using a microplate reader (Synergy HTX; BIOTEK). Cells without dye were used as the blank control."}},
  "data": [
    {"smiles": "O=C(CC(CO)N1CCN(c2ccc(OC(F)(F)F)cc2)CC1)Nc1ccc(Cl)cc1", "note": "(stereo not shown) [VBIT-4, N-(4-chlorophenyl)-4-hydroxy-3-(4-(4-(trifluoromethoxy)phenyl)-piperazin-1-yl)butanamide]", "values": [
      {"measurement": "ISG expression", "setting": "[1]", "result": "decreased"},
      {"measurement": "interaction with VDAC1 measured by MST", "setting": "[2]", "result": "did show interaction"},
      {"measurement": "A23187-induced mitochondrial ROS", "setting": "[3]; healthy controls", "result": "decreased"},
      {"measurement": "A23187-induced mitochondrial ROS", "setting": "[3]; lupus patients", "result": "decreased"}
    ]}
  ]
}
